Tests used:
[1] = molecular target: T1, recombinant human Polq polymerase domain (residues 1792-2590) (Homo sapiens, UniProt O75417); experiment: Cy5 fluorescence assay of Polq polymerase enzymatic activity; format: biochemical; details: Polq IC50, 5 nM Polq polymerase domain, 60 nM primer-template, 50 uM dNTPs, 37° C., 18 min, 2.5% DMSO, triplicate
T1 sequence (O75417 1792-2590): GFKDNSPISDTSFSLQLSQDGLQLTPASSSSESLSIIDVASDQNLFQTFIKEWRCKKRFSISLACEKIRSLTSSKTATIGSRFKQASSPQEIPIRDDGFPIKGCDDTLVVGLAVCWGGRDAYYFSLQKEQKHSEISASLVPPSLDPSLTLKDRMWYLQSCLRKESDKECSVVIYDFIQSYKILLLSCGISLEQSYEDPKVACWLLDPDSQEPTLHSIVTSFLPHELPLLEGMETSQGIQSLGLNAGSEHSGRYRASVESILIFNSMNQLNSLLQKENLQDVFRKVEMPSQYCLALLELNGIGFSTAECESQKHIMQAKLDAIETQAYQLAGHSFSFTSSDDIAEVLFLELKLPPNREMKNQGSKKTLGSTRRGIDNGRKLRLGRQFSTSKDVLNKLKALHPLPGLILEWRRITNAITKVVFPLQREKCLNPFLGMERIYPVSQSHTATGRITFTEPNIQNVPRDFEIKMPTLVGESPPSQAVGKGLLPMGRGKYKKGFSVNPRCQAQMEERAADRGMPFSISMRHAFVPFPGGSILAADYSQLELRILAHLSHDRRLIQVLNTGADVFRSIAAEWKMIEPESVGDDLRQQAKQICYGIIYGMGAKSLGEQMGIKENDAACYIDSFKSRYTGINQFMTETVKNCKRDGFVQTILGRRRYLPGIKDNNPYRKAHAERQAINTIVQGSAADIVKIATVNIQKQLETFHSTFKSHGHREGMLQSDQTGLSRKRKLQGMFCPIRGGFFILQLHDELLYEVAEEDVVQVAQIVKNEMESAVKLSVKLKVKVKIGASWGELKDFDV
Method: The following Cy5 fluorescence assay was used to measure the ability of compounds to inhibit Polq polymerase domain in vitro. The fluorescent based assay was performed as follows: 60 nM of the pre-annealed primer-template containing a 5′ Cy5 fluorophore conjugated template strand (SEQ ID NO 6: 5′-/5Cy5/ […] GGACAG-3′), a downstream complementary oligo conjugated with a 3′ Blackhole quencher (SEQ ID NO 7: 5′-CTAAGCTCACAGTG/3IAbRQSp/-3′) and a primer strand (SEQ ID NO 8: 5′-CTGTCCTGCATGATG-3′) was mixed with 50 uM 2′-deoxyribonucleoside triphosphates (dNTPs), 0.1 mg/mL Bovine serum albumin (BSA), 0.01% NP-40, 10% glycerol, 1 mM dithiothreitol (DTT), 10 mM MgCl2, 25 mM TrisHCl pH 7.8 in the presence of 2.5% DMSO with or without various concentrations (7-point dilution series) of Polq small molecule inhibitors represented by Formula I at 37° C. in a volume of 40 μL.

[2] = tested on: BRCA2-null HCT116 cells; experiment: Survival of BRCA2-null HCT116 cells; format: cell-based; details: as compared to BRCA2-WT HCT116 cells; n=3
[3] = tested on: BRCA2-WT HCT116 cells; experiment: Survival of BRCA2-WT HCT116 cells; format: cell-based; details: n=3
[4] = tested on: BRCA2-null DLD1 cells; experiment: Survival of BRCA2-null DLD1 cells; format: cell-based; details: as compared to BRCA2-WT DLD1 cells; n=3
[5] = tested on: BRCA2-WT DLD1 cells; experiment: Survival of BRCA2-WT DLD1 cells; format: cell-based; details: n=3

SMILES: [2H]C([2H])([2H])N(C(=O)Oc1c(-c2cnn(CC(N)=O)c2)cc(C(F)(F)F)cc1C(F)(F)F)c1ccc(F)cc1 [Example 27, 2-(1-(2-amino-2-oxoethyl)-1H-pyrazol-4-yl)-4,6-bis(trifluoromethyl)phenyl 4-fluorophenyl(methyl-d3)carbamate]
- IC50 [1]: 1.8 nM
- survival of BRCA2-null HCT116 cells [2]: significantly reduced
- resistance of BRCA2-WT HCT116 cells to Polqi [3]: mostly resistant
- survival of BRCA2-null DLD1 cells [4]: significantly reduced
- resistance of BRCA2-WT DLD1 cells to Polqi [5]: mostly resistant

SMILES: [2H]C([2H])([2H])N(C(=O)Oc1c(-c2cn[nH]c2)cc(C(F)(F)F)cc1C(F)(F)F)c1ccc(F)cc1 [Example 26, 2-(1H-pyrazol-4-yl)-4,6-bis(trifluoromethyl)phenyl 4-fluorophenyl(methyl-d3)carbamate]
- IC50 [1]: 2 nM
- survival of BRCA2-null HCT116 cells [2]: significantly reduced
- resistance of BRCA2-WT HCT116 cells to Polqi [3]: mostly resistant
- survival of BRCA2-null DLD1 cells [4]: significantly reduced
- resistance of BRCA2-WT DLD1 cells to Polqi [5]: mostly resistant

SMILES: [2H]C([2H])([2H])N(C(=O)Oc1c(-c2cn(C3CS(=O)(=O)CC3O)nn2)cc(C(F)(F)F)cc1C(F)(F)F)c1ccc(F)c(Cl)c1F (stereo not shown) [Example 24, 2-[1-(4-hydroxy-1,1-dioxo-1λ^6-thiolan-3-yl)-1H-1,2,3-triazol-4-yl]-4,6-bis(trifluoromethyl)phenyl N-(3-chloro-2,4-difluorophenyl)-N-(methyl-d3)carbamate]
- IC50 [1]: 13.6 nM

SMILES: CN(C(=O)Oc1c(-c2cn(CCOCCOCCC(=O)O)nn2)cc(C(F)(F)F)cc1C(F)(F)F)c1ccc(F)cc1 [Example 36, 3-(2-(2-(4-(2-(((4-fluorophenyl)(methyl)carbamoyl)oxy)-3,5-bis(trifluoromethyl)phenyl)-1H-1,2,3-triazol-1-yl)ethoxy)ethoxy)propanoic Acid]
- IC50 [1]: 3 nM

SMILES: CN(C(=O)Oc1c(-n2cc[nH]c2=O)cc(C(F)(F)F)cc1C(F)(F)F)c1ccc(F)cc1 [Example 2, 2-(2-oxo-2,3-dihydro-1H-imidazol-1-yl)-4,6-bis(trifluoromethyl)phenyl N-(4-fluorophenyl)-N-methylcarbamate]
- IC50 [1]: 4 nM
